According to patent publication US20090048229A1, “Methods for promoting wakefulness” (priority 2007, published 2009):

Key:
butylryl cholinesterase = butylryl cholinesterase (Homo sapiens, UniProt P06276); test: Inhibition of butyrylcholinesterase; type: biochemical; details: read-out: Inhibition of BuChE (%) 10 μM
Experimental: The inhibition of butylryl cholinesterase was determined using methods known in the art e.g., Alcala Molel M. et al. (2003) Characterization of the anticholinesterase activity of two new tacrin-huperzine A hybrids. Neuropharmacology, 44 (6), 749-755.

AChE = AChE (Homo sapiens, UniProt P22303); type: biochemical
[1] = tested on: rats trained to discriminate methamphetamine from saline; test: Two-lever drug discrimination in methamphetamine trained rats; details: 0.32-10 mg/kg p.o.
[2] = target: T1, human recombinant acetylcholinesterase (Homo sapiens, UniProt P22303); test: biochemical; details: for IC50: 30 min preincubation, 25° C., read-out: Inhibition of AChE IC50; for inhibition at 10 µM: read-out: Inhibition of AChE (%) 10 μM
T1 construct: purchased Sigma Chemical Co (St. Louis, Mo.) C1682
Experimental: All reagents employed in this experiment were of analytical grade. Acetylthiocholine iodide and 5,5′-dithiobis-(2-nitro)benzoic acid (DTNB) and human recombinant acetylcholinesterase (C1682) were purchased from Sigma Chemical Co (St. Louis, Mo.).
The enzyme, compound or stigmine and buffer were preincubated for 30 minutes. At the end of the preincubation period, the substrate acetylthiocholine was added. The final assay mixture contained 10 mM Tris-buffer (pH 8), 0.3 mM Acetylthiocholine and 0.33 mM DTNB and 0.08 U/ml enzyme. At least five (5) different concentrations of the compound or stigmine were assayed per IC50 experiment.
Hydrolysis of acetylthiocholine was monitored indirectly by measurement of the formation of the conjugate between thiocholine and DTNB.

[3] = tested on: total cholinesterase activity in the brain; test: Total cholinesterase activity in brain homogenate after i.p. injection; type: in vivo, rat; details: brain 3 hours after injection; for Relative ChE Activity: relative to saline treated rats
Experimental: Animals were decapitated 3 hours after injection and the brains rapidly removed. The brain tissue was diced into small pieces, placed on ice and immediately homogenized with a Polytron PT1200 (Kinematic AG) in 10 ml ice cold Tris with 0.1% Triton-X and protease inhibitors. The protease inhibitors in the extraction buffer were Antipain (10 μM), Aprotinin (5 TIU/mg protein), Bestatin ([…]), Leupeptin (10 μM) and Pepstatin (1 μM). The final dilution of the homogenate in the final assay mixture was 120-fold.
Total cholinesterase activity was determined by a modification of the colorimetric method of Ellmann, et al. (Biochem. Pharmacol., 7:88-95 (1961)), as described above. Hydrolysis of acetylthiocholine was monitored indirectly by measurement of the formation of the conjugate between thiocholine and DTNB. Optical density at 405 nm was recorded during five (5) minutes employing a microplate spectrophotometer (Polarstar, BMG Labtech), and plotted against time. The initial rates were calculated from the slope of the linear portion of the graph.
Cholinesterase activity was normalized for protein content of the homogenate. Relative cholinesterase activity was calculated as the ratio of normalized cholinesterase activity in a rat treated with a control compound or a carbamoyl ester over normalized cholinesterase activity in saline treated rats.

[4] = tested on: male CD IGS (Sprague Dawley derived) rats; test: Induction of hypothermia after subcutaneous administration; type: in vivo, rat; details: for Induction of hypothermia MED (mg/kg s.c.): hypothermia = fall in temperature of >0.5° C.; for fall in body temperature: subcutaneous administration
From the text: Cholinergic agonists cause hypothermia through a central mechanism of action (Freedman et al, 1989. Direct measurement of muscarinic agents in the central nervous system of mice using ex vivo binding. Eur. J. Pharmacol. 174:253-260). […] Since a premise of the present invention is that carbomyl esters would liberate the conjugated amine in the CNS only after inhibition of acetylcholinesterase, induction of hypothermia provides a useful correlation with the acetylcholinesterase inhibition detected in vitro and in vivo.
Hypothermia was defined as a fall in temperature of >0.5° C.
Hypothermia is a marker of CNS penetration for ACHE inhibitors.
If less soluble, the maximum injection volume was 5 mL/kg.
Baseline temperatures were taken just before injection.

BuChE = BuChE (Homo sapiens, UniProt P06276); test: In vitro screening assay, BuChE inhibition; type: biochemical
From the text: An in vitro screening assay with various conjugates was completed according to the methods described in Ellman G L et al., Biochem Pharmacol., 7:88-95 (1961) and in Nadarajah B, J. Anal. Toxicol., 16:192-193 (1992), both of which are herein incorporated by reference in their entireties. The assay method was completed according to the following: […]

male Wistar rats = test: Wake promotion (EEG/EMG sleep-wake, locomotor activity, body temperature); type: in vivo, rat; details: for rebound hypersomnolence: FIG. 3; for effect on body temperature: FIG. 4; for locomotor hyperactivity / stimulant activity: FIG. 5; for duration of wakefulness: administered 5 hours after lights on (CT-5), FIG. 2
Experimental: Test compounds in various dose ranges or vehicle were administered to male Wistar rats 5 hours after lights on (CT-5). EEG, EMG, locomotor activity, drink- and food-related activity, and body temperature were concurrently monitored for 30 hr before and after treatment from rats living in separate isolated recording chambers. Sleep-wake discriminations were carried out using SCORE2004™, proprietary real-time hardware and software technology of Hypnion, Inc. (Lexington, Mass.). Comparisons were made between the reference compounds: d-amphetamine, rivastigmine, modafinil, and the following carbamoyl ester test compounds: […]

BuChE, sequence (P06276 29-602): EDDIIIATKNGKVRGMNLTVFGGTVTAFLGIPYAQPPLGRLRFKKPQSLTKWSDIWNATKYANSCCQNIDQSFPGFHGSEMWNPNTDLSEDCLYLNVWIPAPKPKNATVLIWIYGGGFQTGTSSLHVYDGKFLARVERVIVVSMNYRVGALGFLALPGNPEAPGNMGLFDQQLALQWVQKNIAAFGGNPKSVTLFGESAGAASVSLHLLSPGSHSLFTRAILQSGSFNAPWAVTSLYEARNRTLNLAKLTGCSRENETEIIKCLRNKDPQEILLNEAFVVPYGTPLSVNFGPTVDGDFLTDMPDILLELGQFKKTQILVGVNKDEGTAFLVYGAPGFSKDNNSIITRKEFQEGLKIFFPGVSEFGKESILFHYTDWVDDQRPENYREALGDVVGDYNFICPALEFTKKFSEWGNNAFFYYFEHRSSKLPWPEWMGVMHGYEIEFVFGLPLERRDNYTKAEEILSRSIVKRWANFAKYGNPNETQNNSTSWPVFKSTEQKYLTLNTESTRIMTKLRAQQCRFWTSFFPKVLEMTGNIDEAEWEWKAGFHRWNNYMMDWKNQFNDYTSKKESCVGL
AChE, sequence (P22303 32-614): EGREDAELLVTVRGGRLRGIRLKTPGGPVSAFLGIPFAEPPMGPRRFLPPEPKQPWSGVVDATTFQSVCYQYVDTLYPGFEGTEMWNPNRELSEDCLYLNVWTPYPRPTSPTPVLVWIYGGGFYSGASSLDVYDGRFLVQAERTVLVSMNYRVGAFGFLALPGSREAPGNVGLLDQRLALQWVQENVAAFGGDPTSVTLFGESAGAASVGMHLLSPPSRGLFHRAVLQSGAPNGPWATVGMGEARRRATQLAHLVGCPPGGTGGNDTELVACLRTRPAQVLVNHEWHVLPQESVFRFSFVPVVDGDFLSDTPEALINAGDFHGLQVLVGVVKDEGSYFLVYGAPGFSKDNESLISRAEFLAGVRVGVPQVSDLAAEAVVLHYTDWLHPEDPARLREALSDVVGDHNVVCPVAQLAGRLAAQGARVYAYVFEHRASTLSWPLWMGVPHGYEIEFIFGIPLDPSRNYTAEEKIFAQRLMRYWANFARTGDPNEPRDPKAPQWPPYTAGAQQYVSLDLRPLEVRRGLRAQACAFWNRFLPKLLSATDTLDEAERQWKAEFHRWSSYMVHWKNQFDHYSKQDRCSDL
T1 sequence (P22303 32-614): as above
butylryl cholinesterase, sequence (P06276 29-602): as the sequence (P06276 29-602) above

| Compound | inhibition at 10 µM (butylryl cholinesterase) [%] | AChEI (%) 1 μM (AChE) [%] | AChEI (%) 10 μM (AChE) [%] | IC50 [2] [µM] | inhibition at 10 µM [2] [%] | Induction of hypothermia MED (mg/kg s.c.) [4] | fall in body temperature [4] | BuChEI (%) 10 μM (BuChE) [%] | further results |
| --- | --- | --- | --- | --- | --- | --- | --- | --- | --- |
| C[C@H](Cc1ccccc1)N(C)C(=O)Oc1cccc([C@H](C)N(C)C)c1 [Compound 7, S-riva-l-methamphetamine] | 17 | 32 | 79 | 3.2 | 79 | ≦1 mg/kg s.c. | dose-related-related fall in body temperature | 17 | stimulus generalization (selection of methamphetamine lever) [1]: did not select the methamphetamine lever; ChE inhibition ([3]; 2 mg/kg i.p.): 38%; Relative ChE Activity ([3]; 2 mg/kg i.p.): 62%; rebound hypersomnolence (male Wistar rats; listed as Compound B): rebound hypersomnolence was not observed; rebound hypersomnolence (male Wistar rats; listed as compound B): lack of hypersomnolence; effect on body temperature (male Wistar rats; listed as Compound B): did not cause an increase in body temperature (hyperthermia), but rather caused an opposite reduction in body temperature; effect on body temperature (male Wistar rats; listed as compound B): absence of hypothermia; locomotor hyperactivity / stimulant activity (male Wistar rats; listed as Compound B): did not cause locomotor hyperactivity; locomotor hyperactivity / stimulant activity (male Wistar rats; listed as compound B): lack of locomotor stimulant activity; duration of wakefulness (male Wistar rats; listed as B): dose-related increase in wakefulness; duration of wakefulness (male Wistar rats; listed as Compound B): unexpectedly long increase in wakefulness that surpassed that seen with the reference compounds tested |
| C[C@H](Cc1ccccc1)NC(=O)Oc1cccc([C@H](C)N(C)C)c1 [Compound 9, S-riva-l-amphetamine] | 90 | 35 | 79 | 3.1 | 79 | 10 mg/kg s.c. | dose-related-related fall in body temperature | 90 | ChE inhibition ([3]; 8 mg/kg i.p.): 41%; Relative ChE Activity ([3]; 8 mg/kg i.p.): 59%; BuChEI (%) 1 μM (BuChE; 1 μM): 27%; duration of wakefulness (male Wistar rats): dose-related increase in wakefulness |
